# From ChEMBL document CHEMBL1201862, “PubChem BioAssay data set” (2004)
#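 Cells were grown in 96-well plates and exposed to each compound for 48 hours at five concentrations; endpoints were interpolated linearly between bracketing concentrations, or set to the highest concentration if not reached. Abbreviation: GI50, concentration required for 50% inhibition of growth.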 Active and inactive are the calls of the source. Cut-off read from the data, not from the text of the source: active = GI50 up to about 1.1 µM and inactive = higher.
# Tests used:
# Assay in all cases: DTP human tumour cell line panel, 48 h
# ACHN = test system: ACHN
# COLO 205 = test system: COLO 205
# HCT-116 = test system: HCT-116
# Hs-578T = test system: Hs-578T
# LOX IMVI = test system: LOX IMVI
# MCF7 = test system: MCF7
# Malme-3M = test system: Malme-3M
# PC-3 = test system: PC-3
# SF-295 = test system: SF-295
# SK-MEL-5 = test system: SK-MEL-5
# SK-OV-3 = test system: SK-OV-3
# SNB-75 = test system: SNB-75
# SR = test system: SR
# UACC-257 = test system: UACC-257
# UO-31 = test system: UO-31
# CCRF-CEM = test system: CCRF-CEM
# K562 = test system: K562
# RPMI-8226 = test system: RPMI-8226
# RXF 393 = test system: RXF 393
# TK-10 = test system: TK-10
SMILES,GI50 (ACHN),GI50 (COLO 205),GI50 (HCT-116),GI50 (Hs-578T),GI50 (LOX IMVI),GI50 (MCF7),GI50 (Malme-3M),GI50 (PC-3),GI50 (SF-295),GI50 (SK-MEL-5),GI50 (SK-OV-3),GI50 (SNB-75),GI50 (SR),GI50 (UACC-257),GI50 (UO-31),GI50 (CCRF-CEM),GI50 (K562),GI50 (RPMI-8226),GI50 (RXF 393),GI50 (TK-10)
CC(C)(C)[Si](C)(C)OCC1OC(n2ccc(N)nc2=O)C(O[Si](C)(C)C(C)(C)C)C1O[Si](C)(C)C(C)(C)C (configuration not stated),1.82 µM (inactive),3.09 µM (inactive),3.14 µM (inactive),2.55 µM (inactive),1.71 µM (inactive),2.14 µM (inactive),1.8 µM (inactive),1.74 µM (inactive),1.74 µM (inactive),2.01 µM (inactive),2.75 µM (inactive),3.79 µM (inactive),2.73 µM (inactive),3.33 µM (inactive),1.71 µM (inactive),,,,,
CCCCCCCCC[C@@H]1C[C@@H]2CCC3C(C(=O)OCCCCNC(=O)OCc4ccccc4)=C(C)N=C(N1)N32 (some centres not stated),3.15 µM (inactive),1.62 µM (inactive),3.11 µM (inactive),2.51 µM (inactive),2.09 µM (inactive),1.94 µM (inactive),,2.47 µM (inactive),3.44 µM (inactive),1.59 µM (inactive),3.2 µM (inactive),4.59 µM (inactive),,3.27 µM (inactive),4.49 µM (inactive),2.52 µM (inactive),1.77 µM (inactive),2.13 µM (inactive),2.55 µM (inactive),4.5 µM (inactive)
NC(=S)N1N=C(c2ccccc2O)CC1c1ccccc1 (configuration not stated),23.3 µM (inactive),8.97 µM (inactive),12.8 µM (inactive),20.7 µM (inactive),16.9 µM (inactive),4.45 µM (inactive),16.1 µM (inactive),5.24 µM (inactive),6.43 µM (inactive),10.2 µM (inactive),13.9 µM (inactive),16.9 µM (inactive),,15.3 µM (inactive),19.3 µM (inactive),7.94 µM (inactive),3.85 µM (inactive),11.6 µM (inactive),12.4 µM (inactive),20.1 µM (inactive)
Cc1cc(-c2ccccc2)nc2oc(=O)n(C)c12,> 100 µM (inactive),> 100 µM (inactive),75 µM (inactive),> 100 µM (inactive),> 100 µM (inactive),> 100 µM (inactive),> 100 µM (inactive),> 100 µM (inactive),39.5 µM (inactive),> 100 µM (inactive),> 100 µM (inactive),,,> 100 µM (inactive),> 100 µM (inactive),> 100 µM (inactive),> 100 µM (inactive),,28.1 µM (inactive),34.4 µM (inactive)
O=c1cc(N2CCCC2)[nH]c(=O)n1-c1ccc(F)cc1,> 100 µM (inactive),> 100 µM (inactive),> 100 µM (inactive),> 100 µM (inactive),> 100 µM (inactive),> 100 µM (inactive),> 100 µM (inactive),> 100 µM (inactive),> 100 µM (inactive),,> 100 µM (inactive),> 100 µM (inactive),,> 100 µM (inactive),,> 100 µM (inactive),> 100 µM (inactive),> 100 µM (inactive),> 100 µM (inactive),> 100 µM (inactive)
CN(CCCN(C)CCc1ccc(Cl)c(Cl)c1)CCCN1CCCC1,7.11 µM (inactive),2.28 µM (inactive),1.73 µM (inactive),1.48 µM (inactive),1.52 µM (inactive),1.78 µM (inactive),2.16 µM (inactive),3.35 µM (inactive),2.28 µM (inactive),2.32 µM (inactive),10.2 µM (inactive),2.72 µM (inactive),,1.83 µM (inactive),1.23 µM (inactive),0.458 µM (active),0.532 µM (active),0.228 µM (active),1.61 µM (inactive),2.05 µM (inactive)
CC[C@H](C)[C@H](NC(=O)N(CCC#N)CCN(CCN(C(=O)N[C@@H](Cc1ccccc1)C(=O)OC)c1ccccc1)C(=O)N[C@H](C(=O)OC)C(C)C)C(=O)OC,13.8 µM (inactive),24.2 µM (inactive),19.2 µM (inactive),23.7 µM (inactive),20.7 µM (inactive),27.5 µM (inactive),17.2 µM (inactive),16.1 µM (inactive),18.1 µM (inactive),20.5 µM (inactive),20.9 µM (inactive),19.9 µM (inactive),,13.5 µM (inactive),18.1 µM (inactive),22.8 µM (inactive),,10.7 µM (inactive),14.2 µM (inactive),18.3 µM (inactive)
O=c1[nH]c(=O)c2c([nH]1)[nH]c1ccccc12,> 100 µM (inactive),> 100 µM (inactive),> 100 µM (inactive),> 100 µM (inactive),> 100 µM (inactive),> 100 µM (inactive),> 100 µM (inactive),,> 100 µM (inactive),> 100 µM (inactive),> 100 µM (inactive),> 100 µM (inactive),> 100 µM (inactive),> 100 µM (inactive),> 100 µM (inactive),> 100 µM (inactive),> 100 µM (inactive),> 100 µM (inactive),> 100 µM (inactive),> 100 µM (inactive)
O=C(Nc1cccc(F)c1)c1cc2ccc(O)cc2o/c1=N\c1ccccc1F,3.34 µM (inactive),21.1 µM (inactive),4.03 µM (inactive),1.57 µM (inactive),2.96 µM (inactive),3.33 µM (inactive),4.3 µM (inactive),8.85 µM (inactive),8.39 µM (inactive),2.2 µM (inactive),5.36 µM (inactive),,2.47 µM (inactive),4.33 µM (inactive),4 µM (inactive),2.47 µM (inactive),2.01 µM (inactive),1.69 µM (inactive),,
Cc1cc(Cc2c(F)c(F)c(Cc3cc(C)no3)c(F)c2F)on1,> 100 µM (inactive),> 100 µM (inactive),> 100 µM (inactive),29.9 µM (inactive),80.4 µM (inactive),> 100 µM (inactive),> 100 µM (inactive),> 100 µM (inactive),39.9 µM (inactive),28.4 µM (inactive),38.5 µM (inactive),29 µM (inactive),,> 100 µM (inactive),> 100 µM (inactive),> 100 µM (inactive),> 100 µM (inactive),> 100 µM (inactive),33 µM (inactive),54.2 µM (inactive)
CC(=O)OCC1C(C(C)OC(C)=O)CCC2C1CCC1(C)C(OC(C)=O)CCC21 (configuration not stated),14.8 µM (inactive),,15.8 µM (inactive),> 10 µM (inactive),14.7 µM (inactive),19.1 µM (inactive),16.9 µM (inactive),,21 µM (inactive),16.6 µM (inactive),,,23.7 µM (inactive),16.7 µM (inactive),61.9 µM (inactive),19.8 µM (inactive),11.2 µM (inactive),16.5 µM (inactive),,> 100 µM (inactive)
c1cncc(CC2(c3cc4ccccc4[nH]3)OCCO2)c1,> 100 µM (inactive),> 100 µM (inactive),> 100 µM (inactive),96.8 µM (inactive),> 100 µM (inactive),> 100 µM (inactive),> 100 µM (inactive),> 100 µM (inactive),> 100 µM (inactive),61.8 µM (inactive),> 100 µM (inactive),> 100 µM (inactive),85.5 µM (inactive),66.5 µM (inactive),40.6 µM (inactive),> 100 µM (inactive),,,,> 100 µM (inactive)
COc1cc(/C=C2\C(=O)N(c3cccc(Cl)c3)C(c3ccccc3)S2(=O)=O)cc(OC)c1OC (configuration not stated),76.7 µM (inactive),> 100 µM (inactive),24.1 µM (inactive),> 100 µM (inactive),22.2 µM (inactive),33.9 µM (inactive),43.4 µM (inactive),,36.4 µM (inactive),39.2 µM (inactive),58.1 µM (inactive),,,76 µM (inactive),32.3 µM (inactive),18.2 µM (inactive),22.3 µM (inactive),23.2 µM (inactive),26.2 µM (inactive),> 100 µM (inactive)
NS(=O)(=O)c1ccc(NC(=S)N/C=C2\C(=O)Oc3ccccc3C2=O)cc1,18.3 µM (inactive),40.5 µM (inactive),33.5 µM (inactive),17.5 µM (inactive),33.6 µM (inactive),99.5 µM (inactive),,36.1 µM (inactive),32 µM (inactive),26.1 µM (inactive),26.4 µM (inactive),4.2 µM (inactive),,67.8 µM (inactive),17.6 µM (inactive),37.9 µM (inactive),35.1 µM (inactive),30.4 µM (inactive),12.2 µM (inactive),28.2 µM (inactive)
CC(=O)O[C@H]1C[C@H](O[C@H]2[C@@H](O)C[C@H](O[C@H]3[C@@H](O)C[C@H](O[C@H]4CC[C@@]5(C)[C@H](CC[C@@H]6[C@@H]5C[C@@H](O)[C@]5(C)[C@@H](C7=CC(=O)OC7)CC[C@]65O)C4)O[C@@H]3C)O[C@@H]2C)O[C@H](C)[C@H]1O[C@@H]1O[C@H](CO)[C@@H](O)[C@H](O)[C@H]1O [LANATOSIDE C],0.0283 µM (active),0.136 µM (active),0.0324 µM (active),0.0252 µM (active),0.042 µM (active),0.051 µM (active),0.0678 µM (active),,0.0426 µM (active),0.0465 µM (active),0.0597 µM (active),0.167 µM (active),0.1 µM (active),0.238 µM (active),0.0559 µM (active),,0.04 µM (active),0.0368 µM (active),,0.0454 µM (active)
